Values quoted from earlier work as cited in patent US20050277132A1, “Nematode GS-like sequences” (Divergence Inc., a Delaware corporation, priority 2001, published 2005).

Experiments:
[1] = test system: everted hamster jejunal and ileal segments
[2] = test system: isolated intestinal epithelial cells
[3] = test system: pathogenic bacteria that are known to secrete glutamine synthetase; details: bacteria that secrete glutamine synthetase into the extracellular milieu
[4] = test system: bacterial glutamine synthetase enzymes; details: in vitro and in cell culture
[5] = test system: nonpathogenic bacteria that do not export glutamine synthetase

Row | Compound | effect on water and electrolyte absorption [1] | cytotoxicity [2] | growth of pathogenic bacteria [3] | times more active against certain bacterial glutamine synthetase enzymes than representative mammalian glutamine synthetases [4] | effect against nonpathogenic bacteria [5]
1 | CCCCCC[C@@H](O)C/C=C\CCCCCCCC(=O)O [Ricinoleic acid] | inhibitory effect | cytotoxic |  |  | 
2 | CCCCCC[C@@H](O)C/C=C\CCCCCCCC(=O)OC [methyl ester of ricinoleic acid] | ineffective |  |  |  | 
3 | CS(=N)(=O)CC[C@H](N)C(=O)O (stereo partly drawn) [L-methionine-S-sulfoximine] |  |  | selectively block growth | 100 times | no effect
